Measurements taken from the Bradley open melting point set (2014).
Several values for one entry are separate records, joined by “and”; a condition that tells them apart may be missing. Equal values may be shown once.

Structure (SMILES)	melting point
C/C=C/C1Nn2c(nnc2-c2ccc(OC)cc2)S1 (configuration not stated)	81 °C
CC(C)CCOC(=O)/C=C/c1ccc(/C=C/C(=O)OCCC(C)C)c([N+](=O)[O-])c1	94 °C
CCCCOc1ccc(-c2nnc3sc(/C=C/c4ccccc4)nn23)cc1	80 °C
N#C/C(=C\c1ccc(Cl)cc1Cl)c1nc(-c2cccc3ccccc23)cs1	133 °C
CCOC(=O)C(C=Cc1cccc(C=CC(C(=O)OCC)C(=O)OCC)c1)C(=O)OCC	101 °C
O=C1/C(=C\c2ccco2)SC(=S)N1CN1CCCCC1	121 °C
O=C1/C(=N/Nc2cccc([N+](=O)[O-])c2)C(C(F)(F)F)=NN1c1ccccc1	151 °C
C[C@@H]1CCCC[C@@H]1O (relative stereo) [cis-2-methylcyclohexanol]	8 °C
O=C(O)C(O)[C@H](O)C(=O)O (stereo in doubt) [D-tartaric acid]	169 °C
Clc1ccc(C(c2ccc(Cl)cc2)C(Cl)(Cl)Cl)cc1 [1,1'-(2,2,2-Trichloroethane-1,1-diyl)bis(4-chlorobenzene)]	108 °C
Cc1cc(C)c(CSCc2c(C)cc(C)cc2C)c(C)c1 [1,1'-(sulfanediyldimethanediyl)bis(2,4,6-trimethylbenzene)]	146 °C
C1CCC(C2CCCCC2)CC1 [1,1'-Bi(cyclohexyl)]	4 °C
CC(Cl)(Cl)Cl [1,1,1-trichloroethane]	-30 °C
ClCC(Cl)Cl [1,1,2-Trichloroethane]	-35 °C
BrCC(Br)Br [1,1,2-tribromoethane]	-29 °C
C[SiH](C)O[SiH](C)C [1,1,3,3-tetramethyldisiloxane]	-78 °C
BrCC(Br)(Br)CBr [1,2,2,3-tetrabromopropane]	11 °C
OC1CC2=C(CCCC2)CC1O (configuration not stated) [1,2,3,4,5,6,7,8-octahydronaphthalene-2,3-diol]	121 °C
ClC1C(Cl)C(Cl)C(Cl)C(Cl)C1Cl (configuration not stated) [1,2,3,4,5,6-Hexachlorocyclohexane]	113 °C
C1=CC2=NC3=C(CCCC3)C2=CC1 [1,2,3,4-TETRAHYDROCARBAZOLE]	118 °C
c1ccc2c3c([nH]c2c1)CCCC3 [1,2,3,4-tetrahydrocarbazole]	119 °C
Cc1cccc(C)c1C [1,2,3-Trimethylbenzene]	-25 °C
O=Cc1csnn1 [1,2,3-thiadiazole-4-carboxaldehyde]	85 °C

Structure (SMILES)	melting point
O=C(O)c1csnn1 [1,2,3-thiadiazole-4-carboxylic acid]	228 °C
Clc1cccc(Cl)c1Cl [1,2,3-trichlorobenzene]	55 °C and 53 °C (2×)
Oc1cccc(O)c1O [1,2,3-trihydroxybenzene]	134 °C
Brc1cc(Br)c(Br)cc1Br [1,2,4,5-Tetrabromobenzene]	182 °C
Clc1cc(Cl)c(Cl)cc1Cl [1,2,4,5-Tetrachlorobenzene]	139 °C
Clc1cc(Cl)c(Cl)cc1Cl [1,2,4,5-tetrachlorobenzene]	140 °C
Cc1ccc(C)c(C)c1 [1,2,4-Trimethylbenzene]	-43.8 °C
CCCCCCCCCCc1ccc(N(NC(=O)OC(C)(C)C)C(=O)OC(C)(C)C)cc1CCCCCCCCCC [1,2-Bis(tert-butoxycarbonyl)-1-(3,4-didecylphenyl)hydrazine]	37.5 °C
Oc1ccccc1O [1,2-Dihydroxybenzene]	105 °C
Cc1ccc([N+](=O)[O-])cc1C [1,2-Dimethyl-4-nitrobenzene]	30.5 °C
O=S1(=O)CCCO1 [1,2-Oxathiolane 2,2-dioxide]	32 °C
CCC1CO1 (configuration not stated) [1,2-butene oxide]	-130 °C and -129 °C
CC(Br)CBr (configuration not stated) [1,2-dibromopropane] [listing 1 of 2 here]	-55 °C
CC(Br)CBr (configuration not stated) [1,2-dibromopropane] [listing 2 of 2 here]	-55 °C
O=[N+]([O-])c1cccc(Cl)c1Cl [1,2-dichloro-3-nitrobenzene]	62 °C
COCCOC [1,2-dimethoxyethane]	-69 °C
COCCOC [1,2-dimethyloxyethane]	-58 °C
SCCS [1,2-ethanedithiol]	-41 °C
N#CCc1ccccc1CC#N [1,2-phenylenediacetonitrile]	59 °C
Brc1cc(Br)cc(Br)c1 [1,3,5-Tribromobenzene]	122 °C
CC(C)(C)c1cc(C(C)(C)C)cc(C(C)(C)C)c1 [1,3,5-tri-tert-butylbenzene]	71 °C
C1OCOCO1 [1,3,5-trioxane]	61 °C
Cn1c(=O)c2c(ncn2C)n(C)c1=O [1,3,7-Trimethyl-3,7-dihydro-1H-purine-2,6-dione]	237 °C

Structure (SMILES)	melting point
c1ccc2scnc2c1 [1,3-Benzothiazole]	2 °C
Clc1cccc(Cl)c1 [1,3-Dichlorobenzene]	-24.8 °C
O=C=N/c1cccc(N=C=O)c1C [1,3-Diisocyanato-2-methylbenzene]	20 °C
Clc1cccc(Cl)c1 [1,3-dichlorobenzene]	-25 °C
O=C1CC(=O)c2ccccc21 [1,3-indanedione]	130 °C
OCCCCO [1,4-Butanediol]	20.1 °C
Brc1ccc(Br)cc1 [1,4-Dibromobenzene]	88 °C
Clc1ccc(Cl)cc1 [1,4-Dichlorobenzene]	55 °C
O=Cc1ccc2c(c1)OCCO2 [1,4-benzodioxane-6-carboxaldehyde]	50 °C
c1ccc(CCc2ccc(CCc3ccccc3)cc2)cc1 [1,4-bis(2-phenylethyl)benzene]	89 °C
Cc1nc(-c2ccc(-c3nc(C)c(-c4ccccc4)o3)cc2)oc1-c1ccccc1 [1,4-bis(4-methyl-5-phenyloxazol-2-yl)benzene]	234 °C
BrC(Br)c1ccc(C(Br)Br)cc1 [1,4-bis(dibromomethyl)benzene]	168 °C
OCCCCO [1,4-butanediol]	20 °C
Brc1ccc(Br)cc1 [1,4-dibromobenzene]	87.3 °C and 87 °C and 88 °C
ClCCCCCl [1,4-dichlorobutane]	-38 °C
O=C1C=CC(=O)c2ccccc21 [1,4-naphthoquinone]	122 °C
BrCCCCCBr [1,5-dibromopentane]	-40 °C
ClCCCCCCl [1,5-dichloropentane]	-72 °C
O=[N+]([O-])c1cc([N+](=O)[O-])c(F)cc1F [1,5-difluoro-2,4-dinitrobenzene]	74 °C
BrCCCCCCBr [1,6-dibromohexane]	-2 °C
N#CCCCCCCC#N [1,6-dicyanohexane]	-3 °C

Now from value to compound:

melting point	Structure (SMILES)
125 °C	C/C=C/C1Nn2c(nnc2-c2ccccc2OC)S1 (configuration not stated)
152 °C	CC12CCC(C1(C)C)C(C/C=C\c1ccccc1)(C1(C/C=C/c3ccccc3)C(=O)C3(C)CCC1C3(C)C)C2=O (configuration not stated)
170 °C	COc1cc2nnc(/C=C/C(C)=O)c(-c3ccc(C)o3)c2cc1OC
165 °C	O=C(/C=C/c1ccc(-c2ccc(Br)cc2)o1)c1ccco1
259 °C	O=C(O)C1=NN(c2ccccc2)C(=O)C1=CC1C(=O)N(c2ccccc2)N=C1C(=O)O (configuration not stated)
105 °C	CC(CCc1oc2ccccc2c1-c1ccc(C)o1)=NO
132 °C	O=C(O)CC(O)C(=O)O (racemic) [dl-malic acid]
88 °C	O=[N+]([O-])c1cccc(C=Cc2cccc([N+](=O)[O-])c2)c1 [1,1'-[1,2-Ethenediyl]bis[3-nitrobenzene]]
-67 °C	C[SiH](C)O[Si](C)(C)O[SiH](C)C [1,1,3,3,5,5-hexamethyltrisiloxane]
-63 °C	CC(Br)Br [1,1-dibromoethane]
-25 °C	CCCC(c1ccccc1)c1ccccc1 [1,1-diphenylbutane]
-25 °C	Cc1cccc(C)c1C [1,2,3-trimethylbenzene]
80 °C	Cc1cc(C)c(C)cc1C [1,2,4,5-tetramethylbenzene]
167 °C	O=C(O)c1ccc2c(c1)C(=O)OC2=O [1,2,4-benzenetricarboxylic anhydride]
266 °C	c1ccc2c(c1)ccc1cc3c(ccc4ccccc43)cc12 [1,2,5,6-Dibenzanthracene dibenz[a,h]anthracene]
-58 °C	COCCOC [1,2-Dimethoxyethane]
64 °C	OCc1ccccc1CO [1,2-benzenedimethanol]
-34 °C	Fc1ccccc1F [1,2-difluorobenzene]

melting point	Structure (SMILES)
95 °C	c1ccc(OCCOc2ccccc2)cc1 [1,2-diphenoxyethane]
31 °C	CCCCCCC(O)CO (configuration not stated) [1,2-octanediol]
36 °C	Cc1cc(C)n(C)n1 [1,3,5-trimethyl-1h-pyrazole]
75 °C	O=C(CO)CO [1,3-Dihydroxyacetone]
77 °C	O=C(CC(=O)c1ccccc1)c1ccccc1 [1,3-Diphenylpropane-1,3-dione]
266 °C	Cc1ccc(NC(=O)Nc2ccc(C)cc2)cc1 [1,3-bis(4-tolyl)urea]
121 °C	Cn1ccc(=O)n(C)c1=O [1,3-dimethyluracil]
-26 °C	OCCCO [1,3-propanediol]
130 °C	C1CSCCSCCNCCSCCSCCN1 [1,4,10,13-tetrathia-7,16-diazacyclooctadecane]
83 °C	O=C1Cc2ccccc2CO1 [1,4-Dihydro-3H-isochromen-3-on]
58 °C	COc1ccc(OC)cc1 [1,4-Dimethoxybenzene]
55 °C	O=C(CCCc1ccccc1)c1ccccc1 [1,4-diphenyl-1-butanone]
-55 °C	O=C=NCCCCCCN=C=O [1,6-Diisocyanatohexane]
177 °C	CC12CCC(CC1=O)C2(C)C (configuration not stated) [1,7,7-Trimethylbicyclo[2.2.1]heptan-2-one]
182 °C	Oc1ccc2cccc(O)c2c1 [1,7-dihydroxynaphthalene]
16 °C	BrCCCCCCCCBr [1,8-dibromooctane]
142 °C	O=C(/C=C/C=C/c1ccccc1)/C=C/C=C/c1ccccc1 [1,9-diphenyl-1,3,6,8-nonatetraen-5-one]
